What was measured:
[1] = species on record: Rattus norvegicus; details: in vivo, ip, 10 min
[2] = species on record: Rattus norvegicus; experiment: animal or person; details: Wistar, ip, read-out: MED
[3] = target: 5-hydroxytryptamine receptor 6 (Homo sapiens) (UniProt P50406); details: CHO-K1, filed as antagonist, time 1.0 hrs
Sequence of 5-hydroxytryptamine receptor 6 (Homo sapiens) (P50406 whole entry): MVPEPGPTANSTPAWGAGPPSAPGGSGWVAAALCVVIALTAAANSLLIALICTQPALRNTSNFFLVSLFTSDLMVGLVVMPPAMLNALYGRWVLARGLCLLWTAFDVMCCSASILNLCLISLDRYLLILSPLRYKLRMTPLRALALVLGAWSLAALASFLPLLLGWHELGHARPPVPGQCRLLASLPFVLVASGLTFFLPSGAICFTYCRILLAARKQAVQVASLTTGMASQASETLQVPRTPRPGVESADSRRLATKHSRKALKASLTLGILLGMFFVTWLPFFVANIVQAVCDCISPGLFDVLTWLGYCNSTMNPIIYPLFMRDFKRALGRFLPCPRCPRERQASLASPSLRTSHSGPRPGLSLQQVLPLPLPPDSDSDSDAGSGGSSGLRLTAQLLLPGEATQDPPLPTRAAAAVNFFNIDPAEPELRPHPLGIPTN

Row | SMILES | MED [1] [mg/kg] | minimal effective dose [2] [mg/kg] | pKb [3]
1 | O=C1CC2(CCCC2)CC(=O)N1CCCCN1CCN(c2ncccn2)CC1 [BUSPIRONE] | 1 |  | 
2 | CC(C)COc1ccc(CNC(=O)N(Cc2ccc(F)cc2)C2CCN(C)CC2)cc1 [PIMAVANSERIN] | 0.1 | 0.1 | 
3 | O=S(=O)(c1ccccc1)c1cnc2c(N3CCNCC3)cccc2c1 |  |  | 9.47
4 | CN1C(=O)CN=C(c2ccccc2)c2cc(Cl)ccc21 [DIAZEPAM] | 3 |  | 
5 | CN(C)CCCN1c2ccccc2CCc2ccccc21 [IMIPRAMINE] | 10 |  | 

Reference: ChEMBL document CHEMBL5046222, “Multifunctional Arylsulfone and Arylsulfonamide-Based Ligands with Prominent Mood-Modulating Activity and Benign Safety Profile, Targeting Neuropsychiatric Symptoms of Dementia” (J Med Chem, 2021)
